Assay: gradient 5% acetonitrile 3 min, to 50% in 2 min, to 85% in 15 min, held 3 min, 100 µL/min
Details: column: Zorbax Extend-C18 2.1 x 50 mm; eluents: water / acetonitrile, 0.1% formic acid
Procedure, shortened: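 Retention time was recorded from adduct peaks, which were picked computationally and each inspected manually. Pure standards ran in mixtures of ~100 molecules on HPLC coupled to a quadrupole time-of-flight mass spectrometer, in positive and negative ionization mode, through a Zorbax Extend-C18 column (2.1 × 50 mm, 1.8 μm) at 100 μL/min. Eluents were water and acetonitrile, each with 0.1% formic acid.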

SMILES	RP-LC retention time [s]
CN(C)S(=O)(=O)c1ccc2c(c1)N(CC(=O)N1CCN(c3ccccn3)CC1)CCS2	640
Cc1ccccc1NC(=O)C1CCN(S(=O)(=O)c2c(C)[nH]c(C)c2C(=O)N2CCCC2)CC1	675
CCCNC(=O)c1cn(-c2ccc(-c3nc(C4CC4)no3)cn2)cn1	815
CC1CCN(c2ccc(-c3cccc(N)c3)nn2)CC1	588
COCCN1C(=O)[C@H]2CN(Cc3ccc(C)c(C)c3)C[C@H]2C1=O	577
CCOc1cccc2cc(C(=O)Nc3nc(-c4ccccc4)cs3)c(=N)oc12	987
CC(C)n1nnc2cc(C(=O)N(C)CC(=O)Nc3ccc(Cl)cc3)ccc21	793
O=C(Nc1ccc(F)c(Cl)c1)C1CCCN(c2ncc(-c3ccc(F)cc3)cn2)C1 (stereo unspecified)	1230
Cc1ccc(S(=O)(=O)N2C(=O)CCC2C(=O)NCc2ccc(Cl)cc2)cc1C (stereo unspecified)	966
Cc1cccc2nnc(N3CCCC(C(=O)NCCC(C)C)C3)n12 (stereo unspecified)	586
CCCN(CC1CC1)C(=O)[C@@H]1COCC(=O)N1Cc1ccccc1	818
Cc1ccc(Cl)cc1NC(=O)N1CCC(c2nc(C(=O)N3CCCC3)c(C)o2)CC1	858
Cc1c(C(=O)O)nnn1-c1ccc2c(c1)OCCO2	638
CCOc1nc2ccccc2nc1N1CCCC(C(=O)Nc2ccccc2F)C1 (stereo unspecified)	1200
COc1ccc(F)cc1S(=O)(=O)N1CC(c2nc(-c3ccsc3)nn2C)C1	841
CNC(=O)C1CN(C(=O)Nc2ccccc2C(F)(F)F)CC12CCCC2 (stereo unspecified)	734
O=C(CCS(=O)(=O)c1ccc(Cl)cc1)Nc1nnc(Cc2ccc3c(c2)OCO3)o1	726
Cc1cccc(N2CCN(c3cc(C(=O)O)c4cc(NS(C)(=O)=O)ccc4n3)CC2)c1C	715
COC(=O)c1ccc(NC(=O)N2CCOc3ccc(Cl)cc32)cc1	1000
Cn1cc2c(N3CCSCC3)nc(C(=O)NCc3ccc(N4CCCC4)cc3)nc2n1	699
O=C(Cn1nc(-c2ccccc2)c2cc(Cl)ccc21)NC1CCCC1	1130
Cc1ccc(-n2nc(N3CCCN(S(=O)(=O)Cc4ccccc4)CC3)ccc2=O)cc1C	912
Cc1ccc(-c2nc(CCN(C)C(=O)NCc3ccccc3)no2)cc1	905

SMILES	RP-LC retention time [s]
CCOC(=O)c1[nH]c(C)c(C(=O)C(C)N(CC(C)C)C(=O)c2ccc(Cl)cc2)c1C (stereo unspecified)	1080
CC(C)C(=O)Nc1nc2cc(NC(=O)C3CCN(S(=O)(=O)N4CCCC4)CC3)ccc2s1	805
CSc1cccc(NC(=O)N(C)CC2CCOCC2)c1	743
CC(C)c1cc(C(=O)Nc2cccc(F)c2)nc2ccnn12	1140
Cc1nnc(NC(=O)CN2CCCCC2c2nc(C(C)C)no2)s1 (stereo unspecified)	781
COCCN1C(=O)c2ccccc2C(C(=O)NCCc2ccccc2)C12CCCC2 (stereo unspecified)	827
CCn1cc(CCNC(=O)Nc2cccc(OC)c2)c2cccnc21	733
O=C(CN1C(=O)C(C(=O)N2CCCC2)Sc2ccccc21)NCc1ccc(Br)cc1 (stereo unspecified)	971
CCOc1ccc(S(=O)(=O)N2CC(=O)N(C3CCCC3)C3(CCCCC3)C2)cc1	1230
CCn1ccc2oc(C)c(C(=O)NCc3cccc(Br)c3)c2c1=O	1060
Cn1cnc([N+](=O)[O-])c1Sc1n[nH]c(N)n1	599
Cc1ccc(NC(=O)NCC(c2cccnc2)c2cn(C)c3ccccc23)cc1Cl (stereo unspecified)	773
CCOC(=O)c1nnc2c(-c3ccccc3)cnn2c1C	961
Cc1ccc(-c2nc(Nc3ccccc3Cl)sc2CC(=O)O)cc1	1040
COCCC1CCN(C(=O)CN(C)C(=O)c2ccnn2C)CC1	586
Cc1ccc(C)c(NC(=O)C2CCCN(c3nnc(C)c4c(C)n(-c5ccccc5)nc34)C2)c1 (stereo unspecified)	776
O=C(Cn1nc(N2CCOCC2)c2ccccc2c1=O)Nc1ccc(Cl)cc1F	866
Cc1oc(C2CCN(S(=O)(=O)c3ccc(Cl)cc3)CC2)nc1C(=O)N1CCCC1	977
c1ccc2c(c1)-c1cccc3cncc-2c13	897
COc1cc(OC)cc(N2C(=O)C3N=NN(Cc4nc(-c5ccc(OC(C)C)cc5)no4)C3C2=O)c1 (stereo unspecified)	1090
COCC1CN(Cc2cn[nH]c2-c2ccccc2)CCC1(F)F (stereo unspecified)	609
O=c1c2cc(-c3cccs3)nn2cnn1Cc1nc(-c2ccc(Cl)cc2)no1	1150
CCOC(=O)C(C)NC(=O)N1CCN(c2nc3ccccc3nc2C(F)(F)F)CC1 (stereo unspecified)	921

SMILES	RP-LC retention time [s]
CCn1c(C(=O)N2CCN(Cc3ccccc3)CC2)cc2c(-c3cccs3)nn(-c3ccccc3)c21	819
COc1cccc(-n2ccc(=O)c(-c3nc(-c4cccc(OC)c4OC)no3)n2)c1	826
CCOC(=O)N1CCN(C(=O)CCc2csc(NC(=O)c3ccc(F)cc3)n2)CC1	713
CN(C)c1ncccc1C(=O)Nc1ccc(F)cc1	610
Cc1cc2nn(CC(=O)N(C)C3CCCCC3)c(=O)n2c(Nc2ccccc2C)n1	1110
OC(COc1ccc(F)cc1)CN1CCN(c2cccc(Cl)c2)CC1 (stereo unspecified)	734
COc1ccc(NC(=O)Cc2c(C)nn(-c3nc(-c4ccccc4)cs3)c2C)cc1	1110
CCc1ccc(NC(=O)Nc2ccc(NC(=O)N3CCCC(C(=O)NC)C3)cc2)cc1 (stereo unspecified)	730
COC1CCC12CCN(C(=O)c1conc1C)CC2 (stereo unspecified)	679
O=C(NC1CCN(c2ncnc3c2CCC3)C1)c1ccsc1 (stereo unspecified)	580
CC(C)C(=O)N1CCc2cc(C(=O)NC3CC3)ccc21	698
Cc1cc(C)n(CCNC(=O)c2nc3ccccc3s2)n1	708
CN(C)C(=O)c1cc2c(s1)CCC(C(=O)NC1CCCC1)C2 (stereo unspecified)	696
CCOC(=O)C(=O)Nc1c(C(=O)Nc2cccc(Cl)c2)oc2ccccc12	1090
CS(=O)(=O)N1CCCN(C(=O)NC2CCCC2)CC1	636
Cn1c(C(=O)NCCCN2CCCC2=O)cc2c(=O)oc3ccccc3c21	668
c1ccc2c(c1)cnc1ccccc12	710
Cc1ccc(NC(=O)Cn2nc(C(=O)N3CCCC3)c3ccccc32)cc1Cl	950
Cc1ccc(-c2ccc(-n3nc(C)c(S(=O)(=O)NCCN4CCOCC4)c3C)nn2)cc1C	702
COc1ccc(OC)c(CNC(=O)c2ccc(-c3cncnc3)nc2)c1	700
COc1ccc(CNC(=O)c2cc3c(-c4cccs4)nn(-c4ccccc4)c3n2C)cc1	1120
Cc1cccc2nnc(N3CCC(C(=O)NCC4CCCCC4)CC3)n12	709
CCC(C(=O)NCc1cccc(OC)c1OC)n1sc2ccccc2c1=O (stereo unspecified)	988

SMILES	RP-LC retention time [s]
O=C(Nc1nccs1)c1ccc2c(c1)CCCC2	869
Cc1cccc(CNC(=O)c2ncn3c2C(=O)N(C2CC2)C(C)(C(=O)NCc2cccc(C)c2)C3)c1 (stereo unspecified)	832
c1ccc2c(c1)Nc1ccncc1S2	634
CC(C)OCCCNC(=O)CN1C(=O)C2CCCCN2c2ccc(C(=O)N3CCCC3)cc21 (stereo unspecified)	746
COc1ccccc1C1=NN(C(=O)c2ccccc2C)C(c2ccco2)C1 (stereo unspecified)	976
O=C(Cc1nnc(-c2ccccc2)o1)NCC1CC1	684
CN1CCCn2cc(S(=O)(=O)NCc3ccc(F)cc3Cl)cc2C1=O	707
Cc1ccc(C(=O)N2CCC3(CCC3N3CCOCC3)CC2)s1 (stereo unspecified)	597
CCOc1ccc(-n2ccn3cc(-c4ccc(F)cc4F)nc3c2=O)cc1	916
C=CCN1C(=O)COc2ccc(-c3nc(NC(=O)C4CC4)sc3C)cc21	887
COc1ccc(N2CCN(c3cc(SCC(=O)Nc4ccc(C(C)C)cc4)ncn3)CC2)cc1	1110
Cc1cccc(CNc2cc(-n3ccnc3)ncn2)c1	656
Cc1ccc(N2CCC(NC(=O)Cc3ccc(Cl)cc3)C2=O)cc1C (stereo unspecified)	946
CCCS(=O)(=O)N1CCCC(Cc2noc(-c3cnccn3)n2)C1 (stereo unspecified)	764
Cc1ccc(S(=O)(=O)N2CCc3nc(-c4ccc(F)cc4)ncc3C2)cc1Cl	1230
COc1ccccc1OCC(O)COC(N)=O (stereo unspecified)	650
CCOc1ccc(C(=O)N2C[C@@H]3C[C@H]2C[C@@H]3NC(=O)c2ccccc2)cc1	757
CCOC(=O)c1ccc(NC(=O)CCc2c(-c3ccc(F)cc3)nc3ccccn23)cc1	700
CCc1ccc2c(c1)-c1ccccc1S(=O)(=O)N2CC(=O)NCc1cccnc1	684
COc1cc2c(cc1OC)C(C(=O)Nc1ccc(C(C)C)cc1)C(c1cccnc1)N(C)C2=O (stereo unspecified)	720
Cc1ccc(C)c(S(=O)(=O)NCc2c(-c3ccccc3)nc3sc(C)nn23)c1	916
COc1ccc(S(=O)(=O)CCC(=O)Nc2ccc(Cl)c3ncsc23)cc1	707

From the METLIN SMRT retention time set (Domingo-Almenara et al. 2019)
